Results reported in PMC5694373 (European journal of pharmaceutical sciences : official …, 2017).
Read-outs that look alike come from different tables or passages of the source.

What was measured:
[1] = cited from earlier work; for human half-life: reported human half-life simulated in the HFIM
[2] = tested on: wild-type MX/09 influenza; type: cell-based; conditions: oseltamivir 75 mg Q12 and/or zanamivir 600 mg Q12 exposures, alone or in combination, throughout the study

Molecule | oral bioavailability ([1]; ref GlaxoSmithKline, 2009) | human half-life ([1]; ref GlaxoSmithKline, 2009) [h] | effect on viral replication relative to no-treatment control [2] | human half-life ([1]; ref Doucette and Aoki, 2001) [h]
CC(=O)N[C@H]1[C@H]([C@H](O)[C@H](O)CO)OC(C(=O)O)=C[C@@H]1N=C(N)N [Zanamivir, zanamivir] | poor oral bioavailability | 2.5 |  | 
Oseltamivir carboxylate |  |  | suppressed the replication of MX/09 | 8
